Results on two compounds are retold here after patent US9358227B2, “Pharmaceutical uses of 6-amino quinazoline or 3-cyano quinoline derivatives” (Jiangsu Hengrui Medicine Co., Ltd., priority 2009, dated 2016).

Data set [1] can be described thus: Pharmacokinetics assay in rats, intragastric. Format: in vivo. As to conditions: both sexes, rat, plasma, po, SD rats, 25 mg/kg, read-out: Area Under Curve AUC. The method, then:
The pharmacokinetic behavior of the compounds of the present invention was studied and evaluated in rats. 8 healthy adult SD rats, male and female in half, were purchased from SINO-BRITSH SIPPR/BK LAB. ANIMAL LTD., CO, License number: SCXK (Shanghai) 2003-0002 The right amount of compounds were weighted and grinded with 0.5% Sodium Carboxymethyl cellulose uniformly, suspended them with 1% tween 80 to 2.5 mg/mL of suspension before use. […] 8 Healthy adult SD rats, male and female in half, were divided into 2 groups. After an overnight fast, the rats were administered intragastrically at a dose of 25.0 mg/kg. […] The plasma samples were stored at −20° C. until analysis. The rats were fed 2 hours after administration. 50 μL of rat plasmas taken at various time points after administration were mixed with 50 μL of standard series solution to obtain plasma concentration of 50.0, 100, 200, 500, 1000, 2000, 5000 ng/mL. 150 μL, methanol was added and then the mixture was mixed for 3 minute using a vortexer and centrifuged for 10 minutes at 13,500 rpm. 10 μL of the supernatant was analyzed by LC-MS/MS. The main pharmacokinetic parameters were calculated by DAS 2.0 software.

Data set [2] deals with xenografts of Calu-3 human lung cancer. Put plainly: Therapeutic effects against xenografts of Calu-3 human lung cancer in nude mice. Format: in vivo, BALB/cA-nude mice. The method, then:
BALB/cA-nude mice, 6 to 7 weeks old, ♀, purchased from Slaccas Experimental Animal LTD., CO.
Nude mice were hypodermic inoculated Calu-3 human lung cancer cell. After tumors grew to 150-250 mm^3, mice were randomly divided into teams (d0).
The volume of tumors and the weigh of the mice were measured and recorded for 2-3 times per week.
The calculation formula of the volume of tumor (V) is: V=½×a×b^2, a: length of tumor, b: width of tumor.

Setting [3] is: high dose (200 mg/kg), nude mice, Calu-3 xenograft.

SMILES strings stand for the structures.

What is called AUC is concentration integrated over time. For the compound `CCOc1cc2ncc(C#N)c(Nc3ccc(OCc4ccccn4)c(Cl)c3)c2cc1NC(=O)/C=C/[C@@H]1CCCN1C` [Example 1, (E)-N-[4-[[3-Chloro-4-(2-pyridylmethoxy)phenyl]amino]-3-cyano-7-ethoxy-6-quinolyl]-3-[(2S)-1-methylpyrrolidin-2-yl]prop-2-enamide], the AUC in data set [1] turned out to be 52600 ± 39000 ng·h/mL. In data set [2] (setting [3]), the “completely degraded fraction of the tumor” value is given as “⅙” and the “reduced fraction of the tumor volume” value was “⅙”. The “growth of Calu-3 human lung cancer” value in data set [2] (nude mice xenograft) is on record as “markedly inhibited”.
In the case of `CCOc1cc2ncc(C#N)c(Nc3ccc(OCc4ccccn4)c(Cl)c3)c2cc1NC(=O)/C=C/[C@H]1CCCN1C` [Example 5, (E)-N-[4-[[3-Chloro-4-(2-pyridylmethoxy)phenyl]amino]-3-cyano-7-ethoxy-6-quinolyl]-3-[(2R)-1-methylpyrrolidin-2-yl]prop-2-enamide], the AUC in data set [1] worked out at 52800 ± 23600 ng·h/mL.
